Test results from patent US10968462B2, “Plants having increased tolerance to herbicides” (BASF AGRO B.V., priority 2013, dated 2021).

System: transgenic T2 soybean plants
Experiment: Soybean greenhouse spray test, T2 plants at V2-V3 stage, injury 0-9 point scale 1 or 2 weeks after treatment (Tables 7C-7E)
Type: in vivo, Glycine max
Conditions: 2 week after treatment
Method: Soybean cv Jake was transformed as previously described by Siminszky et al., Phytochem Rev. 5:445-458 (2006). After regeneration, transformants were transplanted to soil in small pots, placed in growth chambers (16 hr day/8 hr night; 25° C. day/23° C. night; 65% relative humidity; 130-150 microE m-2 s-1) and subsequently tested for the presence of the T-DNA via Taqman analysis. After a few weeks, healthy, transgenic positive, single copy events were transplanted to larger pots and allowed to grow in the growth chamber. An optimal shoot for cutting was about 3-4 inches tall, with at least two nodes present. Each cutting was taken from the original transformant (mother plant) and dipped into rooting hormone powder (indole-3-butyric acid, IBA). The cutting was then placed in oasis wedges inside a bio-dome. The mother plant was taken to maturity in the greenhouse and harvested for seed. Wild type cuttings were also taken simultaneously to serve as negative controls. The cuttings were kept in the bio-dome for 5-7 days and then transplanted to 3 inch pots and then acclimated in the growth chamber for two more days. […] Other herbicides, such as AHAS (ALS—Acetolactate Synthase) inhibiting herbicides were also tested in a similar fashion for confirming cross resistance to other modes of action: Tritosulfuron, Florasulam, Metsulfuron, Rimsulfuron. Herbicide injury evaluations were taken at 2, 7, 14 and 21 days after treatment.
• 0 No Injury • 1 Minimal injury, only a few patches of leaf injury or chlorosis. • 2 Minimal injury with slightly stronger chlorosis. Overall growth points remain undamaged. • 3 Slightly stronger injury on secondary leaf tissue, but primary leaf and growth points are still undamaged. • 4 Overall plant morphology is slightly different, some chlorosis and necrosis in secondary growth points and leaf tissue. Stems are intact. Regrowth is highly probable within 1 week. • 5 Overall plant morphology is clearly different, some chlorosis and necrosis on a few leaves and growth points, but primary growth point is intact. Stem tissue is still green. Regrowth is highly probably within 1 week. • 6 Strong injury can be seen on the new leaflet growth. Plant has a high probability to survive only through regrowth at different growth points. Most of the leaves are chlorotic/necrotic but stem tissue is still green. May have regrowth but with noticeable injured appearance. • 7 Most of the active growth points are necrotic. There may be a single growth point that could survive and may be partially chlorotic or green and partially necrotic. Two leaves may still be chlorotic with some green; the rest of the plant including stem is necrotic. • 8 Plant will likely die, and all growth points are necrotic. One leaf may still be chlorotic with some green. The remainder of the plant is necrotic. • 9 Plant is dead. • * Not tested

COc1ncc(F)c2nc(S(=O)(=O)Nc3c(F)cccc3F)nn12 [Flurasulam]
injury on a 0-9 point scale (Bradi_1g07930.1 (Event 1), 0.156 g ai/ha): 0.3
injury on a 0-9 point scale (Bradi_1g07930.1 (Event 1), 0.3125 g ai/ha): 0.5
injury on a 0-9 point scale (Bradi_1g07930.1 (Event 1), 0.625 g ai/ha): 2.5
injury on a 0-9 point scale (Bradi_1g07930.1 (Event 1), Flurasulam 1.25 g ai/ha): 3.0
injury on a 0-9 point scale (Bradi_1g07930.1 (Event 1), Flurasulam 2.5 g ai/ha): 1.7
injury on a 0-9 point scale (Bradi_1g07930.1 (Event 1), Flurasulam 5 g ai/ha): 3.3
injury on a 0-9 point scale (R128A_F420V (Event 1), 0.156 g ai/ha): 0.0
injury on a 0-9 point scale (R128A_F420V (Event 1), 0.3125 g ai/ha): 3.3
injury on a 0-9 point scale (R128A_F420V (Event 1), 0.625 g ai/ha): 3.5
injury on a 0-9 point scale (R128A_F420V (Event 1), Flurasulam 1.25 g ai/ha): 4.5
injury on a 0-9 point scale (R128A_F420V (Event 1), Flurasulam 2.5 g ai/ha): 6.8
injury on a 0-9 point scale (R128A_F420V (Event 1), Flurasulam 5 g ai/ha): 6.5
injury on a 0-9 point scale (R128A_F420V (Event 2), 0.156 g ai/ha): 1.0
injury on a 0-9 point scale (R128A_F420V (Event 2), 0.3125 g ai/ha): 1.0
injury on a 0-9 point scale (R128A_F420V (Event 2), 0.625 g ai/ha): 3.5
injury on a 0-9 point scale (R128A_F420V (Event 2), Flurasulam 1.25 g ai/ha): 5.0
injury on a 0-9 point scale (R128A_F420V (Event 2), Flurasulam 2.5 g ai/ha): 6.0
injury on a 0-9 point scale (R128A_F420V (Event 2), Flurasulam 5 g ai/ha): 6.0
injury on a 0-9 point scale (R128A_F420V + Bradi_1g07930.1 (Event 1), 0.156 g ai/ha): 1.5
injury on a 0-9 point scale (R128A_F420V + Bradi_1g07930.1 (Event 1), 0.3125 g ai/ha): 2.3
injury on a 0-9 point scale (R128A_F420V + Bradi_1g07930.1 (Event 1), 0.625 g ai/ha): 3.0
injury on a 0-9 point scale (R128A_F420V + Bradi_1g07930.1 (Event 1), Flurasulam 1.25 g ai/ha): 3.5
injury on a 0-9 point scale (R128A_F420V + Bradi_1g07930.1 (Event 1), Flurasulam 2.5 g ai/ha): 3.3
injury on a 0-9 point scale (R128A_F420V + Bradi_1g07930.1 (Event 1), Flurasulam 5 g ai/ha): 2.5
injury on a 0-9 point scale (R128A_F420V + Bradi_1g07930.1 (Event 2), 0.156 g ai/ha): 3.3
injury on a 0-9 point scale (R128A_F420V + Bradi_1g07930.1 (Event 2), 0.3125 g ai/ha): 3.0
injury on a 0-9 point scale (R128A_F420V + Bradi_1g07930.1 (Event 2), 0.625 g ai/ha): 3.0
injury on a 0-9 point scale (R128A_F420V + Bradi_1g07930.1 (Event 2), Flurasulam 1.25 g ai/ha): 3.5
injury on a 0-9 point scale (R128A_F420V + Bradi_1g07930.1 (Event 2), Flurasulam 2.5 g ai/ha): 3.0
injury on a 0-9 point scale (R128A_F420V + Bradi_1g07930.1 (Event 2), Flurasulam 5 g ai/ha): 3.5
injury on a 0-9 point scale (wild type, 0.156 g ai/ha): 0.3
injury on a 0-9 point scale (wild type, 0.3125 g ai/ha): 3.0
injury on a 0-9 point scale (wild type, 0.625 g ai/ha): 4.0
injury on a 0-9 point scale (wild type, Flurasulam 1.25 g ai/ha): 5.5
injury on a 0-9 point scale (wild type, Flurasulam 2.5 g ai/ha): 6.0
injury on a 0-9 point scale (wild type, Flurasulam 5 g ai/ha): 7.5

COc1nc(C)nc(=NC(=O)NS(=O)(=O)c2ccccc2C(=O)O)[nH]1 [Metsulfuron]
injury on a 0-9 point scale (Bradi_1g07930.1 (Event 1), 1.05 g ai/ha): 1.0
injury on a 0-9 point scale (Bradi_1g07930.1 (Event 1), 2.1 g ai/ha): 0.7
injury on a 0-9 point scale (Bradi_1g07930.1 (Event 1), 4.2 g ai/ha): 2.3
injury on a 0-9 point scale (Bradi_1g07930.1 (Event 1), 8.4 g ai/ha): 3.3
injury on a 0-9 point scale (R128A_F420V (Event 1), 1.05 g ai/ha): 8.0
injury on a 0-9 point scale (R128A_F420V (Event 1), 2.1 g ai/ha): 8.0
injury on a 0-9 point scale (R128A_F420V (Event 1), 4.2 g ai/ha): 8.0
injury on a 0-9 point scale (R128A_F420V (Event 1), 8.4 g ai/ha): 8.7
injury on a 0-9 point scale (R128A_F420V (Event 2), 1.05 g ai/ha): 8.0
injury on a 0-9 point scale (R128A_F420V (Event 2), 2.1 g ai/ha): 9.0
injury on a 0-9 point scale (R128A_F420V (Event 2), 4.2 g ai/ha): 8.7
injury on a 0-9 point scale (R128A_F420V (Event 2), 8.4 g ai/ha): 9.0
injury on a 0-9 point scale (R128A_F420V + Bradi_1g07930.1 (Event 1), 1.05 g ai/ha): 2.7
injury on a 0-9 point scale (R128A_F420V + Bradi_1g07930.1 (Event 1), 2.1 g ai/ha): 3.0
injury on a 0-9 point scale (R128A_F420V + Bradi_1g07930.1 (Event 1), 4.2 g ai/ha): 4.0
injury on a 0-9 point scale (R128A_F420V + Bradi_1g07930.1 (Event 1), 8.4 g ai/ha): 4.3
injury on a 0-9 point scale (R128A_F420V + Bradi_1g07930.1 (Event 2), 1.05 g ai/ha): 3.0
injury on a 0-9 point scale (R128A_F420V + Bradi_1g07930.1 (Event 2), 2.1 g ai/ha): 3.7
injury on a 0-9 point scale (R128A_F420V + Bradi_1g07930.1 (Event 2), 4.2 g ai/ha): 3.0
injury on a 0-9 point scale (R128A_F420V + Bradi_1g07930.1 (Event 2), 8.4 g ai/ha): 3.0
injury on a 0-9 point scale (wild type, 1.05 g ai/ha): 8.5
injury on a 0-9 point scale (wild type, 2.1 g ai/ha): 8.3
injury on a 0-9 point scale (wild type, 4.2 g ai/ha): 8.8
injury on a 0-9 point scale (wild type, 8.4 g ai/ha): 8.5
